Experimental findings from BindingDB's records for PubMed 7791071 (Rhone-Poulenc Rorer Central Research, 1995) are described below.

Several values for one entry are separate records, joined by “and”; a condition that tells them apart may be missing. Equal values may be shown once.

The target in the experiment is T1, Cholecystokinin (Sus scrofa, UniProt P01356).
T1 sequence (P01356 whole entry): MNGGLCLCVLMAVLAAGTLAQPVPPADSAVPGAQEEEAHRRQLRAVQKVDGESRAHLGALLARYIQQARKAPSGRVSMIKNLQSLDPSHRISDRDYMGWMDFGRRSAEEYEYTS

As to `O=C(NC(Cc1c[nH]c2ccccc12)C(=O)O)c1ccc(Cl)cc1` (stereo unspecified), the inhibition constant Ki was more than 10000 nM.

Regarding `Cc1cccc(NC(=O)N[C@H]2N=C(c3ccccc3)c3ccccc3N(C)C2=O)c1`, the Ki is 7.2 nM and 4.8 nM.

`CN1C(=O)[C@@H](NC(=O)c2cc3ccccc3[nH]2)N=C(c2ccccc2)c2ccccc21` [1H-Indole-2-carboxylic acid (1-methyl-2-oxo-5-phenyl-2,3-dihydro-1H-benzo[e][1,4]diazepin-3-yl)-amide: 0.1C4H10O. 0.15CH2Cl2]: the inhibition constant Ki was 141 nM and 87 nM.

As for `CSCC[C@H](NC(=O)[C@H](Cc1ccc(OS(=O)(=O)O)cc1)NC(=O)[C@@H](N)CC(=O)O)C(=O)NCC(=O)N[C@@H](Cc1c[nH]c2ccccc12)C(=O)N[C@@H](CCSC)C(=O)N[C@@H](CC(=O)O)C(=O)N[C@@H](Cc1ccccc1)C(N)=O` [(3S)-3-[(2S)-2-[(2S)-2-{2-[(2S)-2-[(2S)-2-[(3S)-3-amino-3-formamidopropanoic acid]-3-[4-(sulfooxy)phenyl]propanamido]-4-(methylsulfanyl)butanamido]acetamido}-3-(1H-indol-3-yl)propanamido]-4-(methylsulfanyl)butanamido]-3-{[(1S)-1-carbamoyl-2-phenylethyl]carbamoyl}propanoic acid], the inhibition constant (Ki) is 0.43 nM and 1.1 nM.

On to `CSCC[C@H](NC(=O)[C@H](Cc1c[nH]c2ccccc12)NC(=O)CCNC(=O)OC(C)(C)C)C(=O)N[C@@H](CC(=O)O)C(=O)N[C@@H](Cc1ccccc1)C(N)=O` [CAS_5534-95-2], for which the inhibition constant Ki was 3.3 nM and 6 nM.

With `CC(Cc1c[nH]c2ccccc12)(NC(=O)OC1C2CC3CC(C2)CC1C3)C(=O)NCC(NC(=O)CCC(=O)O)c1ccccc1` (stereo unspecified) [NSC_108186], the inhibitory constant (Ki) is 0.46 nM and 2 nM.

What is called Ki is the equilibrium dissociation constant of an inhibitor or competing ligand from its target.
